Test [1] deals with T1, tubulin (Sus scrofa, UniProt P02550+P02554).
T1 construct: Tubulin is purified from pig brain according to published methods; from tissue; host or cells: pig brain
Briefly: Evaluation of the inhibition of tubulin polymerization (turbidimetry). Format: biochemical, pig. As to conditions: tubulin 10 μm (1 mg/ml), 37° C., turbidity at 350 nm; concentration that inhibits the rate of polymerization by 50%; read-out: Inhibition of tubulin polymerization IC 50 (μm). How it is done: Tubulin is purified from pig brain according to published methods (Shelanski et al., 1973, Proc. Natl. Acad. Sci. USA, 70, 765-768. Weingarten et al., 1975, Proc. Natl. Acad. Sci. USA, 72, 1858-1862). Briefly, the brains are ground and centrifuged in an extraction buffer. The tubulin contained in the supernatant of the extract undergoes two successive cycles of polymerization at 37° C. and depolymerization at 4° C., before being separated from the MAPs (Microtubule Associated Proteins) by chromatography on a phosphocellulose P11 column (Whatman). The tubulin thus isolated is more than 95% pure. It is stored in a buffer known as RB/2 30% glycerol, the composition of which is 50 mM MES-NaOH [2-(N-morpholino)ethanesulfonic acid], pH 6.8; 0.25 mM MgCl2; 0.5 mM EGTA; 30% glycerol (v/v), 0.2 mM GTP (guanosine-5′-triphosphate).
The polymerization of tubulin to microtubules is monitored by turbidimetry as follows: the tubulin is adjusted to a concentration of 10 μm (1 mg/ml) in RB/2 30% glycerol buffer to which 1 mM GTP and 6 mM MgCl2 are added. The polymerization is triggered by an increase in temperature from 6° C. to 37° C. in a cuvette with an optical path length of 1 cm, placed in a UVIKON 931 spectrophotometer (Kontron) equipped with a thermostatically maintained cuvette holder. The increase in the turbidity of the solution is monitored at 350 nm.
The products are dissolved at 10 mM in DMSO and added at variable concentrations (0.5 to 10 μm) to the tubulin solution before polymerization. The IC50 value is defined as the concentration of product that inhibits the rate of polymerization by 50%.

In test [2] the test system is HCT116 cells. Briefly: Inhibition of proliferation of the human colon tumor line HCT116 ([14C]-thymidine incorporation). The class given is cell-based. As to conditions: Homo sapiens, HCT-116, 48 h, 48 hours at 37° C., read-out: Inhibition of HCT116 proliferation IC 50 (μm). On the procedure:
The proliferation of HCT116 cells is evaluated by measuring the incorporation of [^14C]-thymidine in the following manner. The HCT 116 cells (obtained from the ATCC) are cultured in a DMEM medium (Gibco) containing 10% fetal calf serum and antibiotics (1% penicillin, 1% streptomycin). To perform the proliferation test, the cells are inoculated in cytostar 96-well microplates (Amersham), at a rate of 5000 cells per well. [^14C]-thymidine (0.1 μCi/well) and the products to be evaluated are then added. Variable concentrations of products up to 10 μm are used; the DMSO (solvent used to dissolve the products) should not exceed 0.5% in the medium. 48 hours after incubation at 37° C., the radioactivity incorporated into the cells is measured by counting the plate in a TRI-LUX counter (Wallac). The IC50 is defined as the concentration of product that reduces the radioactivity by 50% compared with an untreated control. A product whose IC50 is less than 3 μm is considered cytotoxic.

Where only a bound is given, the exact number is not on record here.

T1 sequence (P02550 whole entry): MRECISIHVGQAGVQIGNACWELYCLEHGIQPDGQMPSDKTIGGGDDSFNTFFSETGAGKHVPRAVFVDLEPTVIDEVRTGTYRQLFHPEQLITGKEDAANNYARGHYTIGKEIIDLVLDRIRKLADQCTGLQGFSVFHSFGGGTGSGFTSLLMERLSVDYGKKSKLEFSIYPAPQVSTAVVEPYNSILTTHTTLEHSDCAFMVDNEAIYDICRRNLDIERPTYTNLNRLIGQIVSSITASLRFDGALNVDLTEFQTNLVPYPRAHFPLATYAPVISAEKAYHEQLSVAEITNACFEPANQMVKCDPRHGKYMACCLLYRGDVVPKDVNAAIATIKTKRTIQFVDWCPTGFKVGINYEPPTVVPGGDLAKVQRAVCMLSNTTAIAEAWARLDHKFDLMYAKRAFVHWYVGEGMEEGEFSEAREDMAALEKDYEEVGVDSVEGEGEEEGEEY
T1 sequence (P02554 whole entry): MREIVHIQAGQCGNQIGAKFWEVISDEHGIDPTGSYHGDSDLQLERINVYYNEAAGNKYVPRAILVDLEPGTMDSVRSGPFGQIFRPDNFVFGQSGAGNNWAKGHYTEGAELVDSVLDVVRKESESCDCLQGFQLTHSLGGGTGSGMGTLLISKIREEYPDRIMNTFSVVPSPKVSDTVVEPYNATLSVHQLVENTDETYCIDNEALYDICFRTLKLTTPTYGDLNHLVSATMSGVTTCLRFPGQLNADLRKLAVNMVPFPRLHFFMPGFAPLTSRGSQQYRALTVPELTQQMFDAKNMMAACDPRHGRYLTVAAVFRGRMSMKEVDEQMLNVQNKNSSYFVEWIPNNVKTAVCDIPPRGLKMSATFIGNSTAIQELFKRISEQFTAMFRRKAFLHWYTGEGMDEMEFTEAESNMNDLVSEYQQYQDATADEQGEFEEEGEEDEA

For the compound `C/C=C/c1cc(C(=O)N2CCN(c3cc(OC)cc(OC)c3)CC2)n(-c2ccccc2)n1` [Example E86], the IC50 in test [1] stood at 870 nM; in test [2], 6.8 nM.

In the case of `COc1cc(OC)cc(N2CCN(C(=O)c3cc(-c4ccc(F)cc4)nn3-c3ccccc3)CC2)c1` [Example E88, [4-(3,5-Dimethoxyphenyl)piperazin-1-yl][5-(4-fluorophenyl)-2-phenyl-2H-pyrazol-3-yl]methanone], the IC50 came to 4530 nM in test [1] and 1260 nM in test [2].

For `COc1cc(OC)cc(N2CCN(C(=O)c3cc(N4CCOCC4)nn3-c3ccccc3)CC2)c1` [Example E96, [4-(3,5-Dimethoxyphenyl)piperazin-1-yl][5-(morpholin-4-yl)-2-phenyl-2H-pyrazol-3-yl]methanone], the IC50 in test [1] was 11400 nM; in test [2] it was 73.3 nM.

As to `O=C(c1cc(-c2ccsc2)nn1-c1ccccc1)N1CCN(c2cccc(Cl)c2)CC1` [Example E68, [4-(3-Chlorophenyl)piperazin-1-yl][2-phenyl-5-(thiophen-3-yl)-2H-pyrazol-3-yl]methanone], the figures for the IC50 in test [1] and in test [2] were 1400 nM and 339 nM, respectively.

As to `O=C(c1cc(-c2cccs2)nn1-c1ccccc1)N1CCN(c2cccc(Cl)c2)CC1` [Example E69, [4-(3-Chlorophenyl)piperazin-1-yl][2-phenyl-5-(thiophen-2-yl)-2H-pyrazol-3-yl]methanone], the figures for the IC50 in test [1] and in test [2] were 1700 nM and 6150 nM, respectively.

In the case of `COc1cccc(-n2nc(C)cc2C(=O)N2CCN(c3cccc(Cl)c3Cl)CC2)c1` [3/139], the figures for the IC50 in test [1] and in test [2] were < 25000 nM and 1350 nM, respectively.

On to `Cc1cc(C(=O)N2CCN(c3ccc(Cl)c(Cl)c3)CC2)n(-c2ccc(F)cc2)n1` [3/146], for which the IC50 turned out to be 1300 nM in test [1] and 43 nM in test [2].

As to `Cc1cc(C(=O)N2CCN(c3ccc(Cl)c(Cl)c3)CC2)n(-c2cccc(F)c2)n1` [3/93], the IC50 in test [1] turned out to be 1700 nM; in test [2] it was 32 nM.

For `COc1cccc(N2CCN(C(=O)c3cc(C)nn3-c3ccccc3F)CC2)c1` [3/15], the IC50 amounted to 2000 nM in test [1] and 4 nM in test [2].

For the compound `COc1cc(OC)cc(N2CCN(C(=O)c3cc(-c4ccc(C(F)(F)F)cc4)nn3-c3ccccc3)CC2)c1` [Example E89, [4-(3,5-Dimethoxyphenyl)piperazin-1-yl][2-phenyl-5-(4-trifluoromethylphenyl)-2H-pyrazol-3-yl]methanone], the IC50 amounted to 3420 nM in test [1] and 1100 nM in test [2].

In the case of `COc1ccc(-n2nc(C)cc2C(=O)N2CCN(c3cccc(OC)c3)CC2)cc1` [3/105], the IC50 in test [1] was 4500 nM; in test [2], 118 nM.

For `Cc1cc(C(=O)N2CCN(c3cccc4ccccc34)CC2)n(-c2ccccc2)n1` [3/13], the IC50 in test [1] amounted to 6000 nM; in test [2], 466 nM.

Take `COc1cc(OC)cc(N2CCN(C(=O)c3cc(Br)nn3-c3ccccc3)CC2)c1` [Example E82, (5-Bromo-2-phenyl-2H-pyrazol-3-yl)[4-(3,5-dimethoxyphenyl)piperazin-1-y]-methanone]: the IC50 in test [1] is 940 nM; in test [2], 1.8 nM.

Turning to `Cc1cccc(-n2nc(C)cc2C(=O)N2CCN(c3ccc(Cl)c(Cl)c3)CC2)c1` [3/113], the IC50 in test [1] is 1200 nM; in test [2], 75 nM.

On to `Cc1cc(C(=O)N2CCN(c3ccccc3C(F)(F)F)CC2)n(-c2cccc(Cl)c2)n1` [3/128], for which the IC50 in test [1] was 12000 nM; in test [2], 901 nM.

For the compound `COc1cc(OC)cc(N2CCN(C(=O)c3cc(/C=N/O)nn3-c3ccccc3)CC2)c1` [Example E94, 5-[4-(3,5-Dimethoxyphenyl)piperazine-1-carbonyl]-1-phenyl-1H-pyrazole-3-carboxaldehyde oxime E], the IC50 in test [1] was determined as 900 nM; in test [2], 2 nM.

`Cc1cc(C(=O)N2CCN(c3ccc(F)c(Cl)c3)CC2)n(-c2ccccc2)n1` [Example E72, [4-(3-Chloro-4-fluorophenyl)piperazin-1-yl](5-methyl-2-phenyl-2H-pyrazol-3-yl)methanone]: the IC50 amounted to 1550 nM in test [1] and 6.6 nM in test [2].

As for `Cc1cc(C(=O)N2CCN(c3cccc([N+](=O)[O-])c3)CC2)n(-c2ccccc2)n1` [Example E5, [4-(3-Nitrophenyl)piperazin-1-yl](5-methyl-2-phenyl-2H-pyrazol-3-yl)-methanone], the results for the IC50 in test [1] and in test [2] were 800 nM and 3 nM, respectively.

As to `Cc1ccc(-n2nc(C)cc2C(=O)N2CCN(c3cccc(Cl)c3)CC2)cc1` [3/27], the results for the IC50 in test [1] and in test [2] were 4500 nM and 217 nM, respectively.

`Cc1cccc(-n2nc(C)cc2C(=O)N2CCN(c3cc(Cl)ccc3C)CC2)c1` [3/53]: the IC50 in test [1] came to 1200 nM; in test [2], 52 nM.

`Cc1cccc(N2CCN(C(=O)c3cc(C)nn3-c3ccc(F)cc3)CC2)c1` [3/57]: the results for the IC50 in test [1] and in test [2] were 1400 nM and 15 nM, respectively.

As to `Cc1cc(C(=O)N2CCN(c3cccc(Cl)c3Cl)CC2)n(-c2cccc(Cl)c2)n1` [3/125], the IC50 in test [1] was determined as 12500 nM; in test [2], 148 nM.

Consider `Cc1cc(C(=O)N2CCN(c3ccsc3)CC2)n(-c2ccccc2)n1` [Example E104, (5-Methyl-2-phenyl-2H-pyrazol-3-yl)[4-(thiophen-3-yl)piperazin-1-yl]-methanone], for which the results for the IC50 in test [1] and in test [2] were 8000 nM and 839 nM, respectively.

On to `CCOc1ccccc1N1CCN(C(=O)c2cc(C)nn2-c2cccc(Cl)c2)CC1` [3/71], for which the IC50 amounted to 2500 nM in test [1] and 220 nM in test [2].

Turning to `Cc1cc(C(=O)N2CCN(c3cncc(Cl)c3)CC2)n(-c2ccccc2)n1` [Example E33, [4-(5-Chloro-3-pyridyl)piperazin-1-yl](5-methyl-2-phenyl-2H-pyrazol-3-yl)methanone], the IC50 in test [1] was 900 nM; in test [2], 8.9 nM.

On to `Cc1cc(C(=O)N2CCN(c3cccc(Cl)c3)CC2)n(C2CCCCC2)n1` [Example E48, [4-(3-Chlorophenyl)piperazin-1-yl](2-cyclohexyl-5-methyl-2H-pyrazol-3-yl)-methanone], for which the IC50 is 3260 nM in test [1] and 490 nM in test [2].

As to `Cc1cccc(-n2nc(C)cc2C(=O)N2CCN(c3ccc(Cl)cc3)CC2)c1` [3/52], the IC50 in test [1] came out at 13000 nM; in test [2], 256 nM.

Take `COc1cccc(-n2nc(C)cc2C(=O)N2CCN(c3cccc(C)c3C)CC2)c1` [3/135]: the IC50 in test [1] was 6000 nM; in test [2], 321 nM.

`Cc1cc(C(=O)N2CCN(c3cccc(C)c3C)CC2)n(-c2ccccc2F)n1` [3/141]: the figures for the IC50 in test [1] and in test [2] were 7000 nM and 66 nM, respectively.

For the compound `COc1cccc(-n2nc(C)cc2C(=O)N2CCN(c3ccc4c(c3)OCCO4)CC2)c1` [3/140], the IC50 in test [1] is < 25000 nM; in test [2], 2970 nM.

With `COc1ccc(Cl)cc1N1CCN(C(=O)c2cc(C)nn2-c2cccc(F)c2)CC1` [3/22], the results for the IC50 in test [1] and in test [2] were 1500 nM and 46 nM, respectively.

For `Cc1cc(C(=O)N2CCN(c3cccc(Cl)c3)CC2)n(-c2cnccn2)n1` [Example E36, [4-(3-Chlorophenyl)piperazin-1-yl](5-methyl-2-pyrazin-2-yl-2H-pyrazol-3-yl)-methanone], the figures for the IC50 in test [1] and in test [2] were 20000 nM and 939 nM, respectively.

On to `O=Cc1cc(C(=O)N2CCN(c3cccc(Cl)c3)CC2)n(-c2ccccc2)n1` [Example E70, 5-[4-(3-Chlorophenyl)piperazine-1-carbonyl]-1-phenyl-1H-pyrazole-3-carboxaldehyde], for which the IC50 amounted to 1300 nM in test [1] and 10.8 nM in test [2].

On to `Cc1cc(C(=O)N2CCN(c3ccc(C)c(C)c3)CC2)n(-c2cccc(Cl)c2)n1` [3/66], for which the IC50 in test [1] amounted to 2000 nM; in test [2] it was 73 nM.

Take `Cc1cc(C(=O)N2CCN(c3cccc(Cl)c3)CC2)n(-c2ccccn2)n1` [Example E22, [4-(3-Chlorophenyl)piperazin-1-yl](5-methyl-2-pyrid-2-yl-2H-pyrazol-3-yl)-methanone]: the results for the IC50 in test [1] and in test [2] were 1900 nM and 6.4 nM, respectively.
